Literature values as cited in patent publication US20120059013A1, “METHOD OF TREATING EARLY MORNING AKINESIA IN SUBJECTS HAVING PARKINSON'S DISEASE” (priority 2010, published 2012).

How the values were obtained:
[1] = system: hepatic cytochrome P450 enzymes; details: humans
[2] = humans

Structure (SMILES): CCCN[C@H]1CCc2nc(N)sc2C1 [Pramipexole, (S)-2-amino-4,5,6,7,-tetrahydro-6-(propylamino)benzothiazole]
- Interaction with hepatic cytochrome P450 enzymes [1]: no significant interaction with hepatic cytochrome P450 enzymes
- Half-life [2]: long half-life
- Oral bioavailability [2]: high oral bioavailablity
